Measurements as given in patent publication US20240261414A1, “FATTY ACID AMIDE HYDROLASE (FAAH) CLEAVABLE PRODRUGS OF BRAIN TARGETING ACTIVES AND COMBINATION WITH PERIPHERALLY RESTRICTED FAAH INHIBITORS” (Autobahn Therapeutics, Inc., priority 2021, published 2024).

These molecules were tested against T1, recombinant human FAAH (rhFAAH) (Homo sapiens, UniProt O00519) (assay: FAAH substrate evaluation (acid metabolite formation)). Conditions: 0.5 ng/L rhFAAH, 1 μM test compound, Tris-EDTA buffer pH 8.0, room temperature, 0-60 minutes.
T1 construct: purchased Cayman Chemical (Ann Arbor, MI, USA)
T1 sequence (O00519 1-579): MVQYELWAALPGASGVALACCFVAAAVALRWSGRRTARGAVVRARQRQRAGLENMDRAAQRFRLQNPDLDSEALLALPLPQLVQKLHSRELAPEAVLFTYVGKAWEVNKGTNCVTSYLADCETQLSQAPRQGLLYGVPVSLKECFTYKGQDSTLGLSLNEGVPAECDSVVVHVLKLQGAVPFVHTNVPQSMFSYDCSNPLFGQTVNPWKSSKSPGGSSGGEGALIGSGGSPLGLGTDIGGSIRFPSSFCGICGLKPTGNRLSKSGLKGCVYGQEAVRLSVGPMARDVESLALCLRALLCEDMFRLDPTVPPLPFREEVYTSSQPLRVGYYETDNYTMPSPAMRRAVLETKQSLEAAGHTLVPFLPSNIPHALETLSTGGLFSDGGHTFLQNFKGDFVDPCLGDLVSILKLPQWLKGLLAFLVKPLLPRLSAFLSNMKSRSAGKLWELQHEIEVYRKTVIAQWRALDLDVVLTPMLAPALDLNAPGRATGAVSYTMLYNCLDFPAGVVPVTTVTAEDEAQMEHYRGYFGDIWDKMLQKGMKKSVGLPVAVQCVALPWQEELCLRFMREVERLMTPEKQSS
Assay type: biochemical
Protocol: Purified recombinant human FAAH (rhFAAH) was purchased from Cayman Chemical (Ann Arbor, MI, USA). The total volume for each incubation was 400 μL containing a final 0.5 ng/L rhFAAH, 1 μM test compound, 1.25% ethanol or 1 μM PF-3845 (FAAH inhibitor), and 0.1% bovine serum albumin in Tris-EDTA buffer at pH 8.0). The positive control was LL-341001. The incubation was conducted at the room temperature. At 0, 5, 15, 30 and 60 minutes, an aliquot of 30 μL reaction mixtures was removed and mixed with 300 μL acetonitrile containing 5 ng/mL terfenadine and 10 ng/mL tolbutamide as internal standards to quench the reaction. The resulting mixture was centrifuged at 4000 rpm, 4° C. for 15 minutes, and 100 μL supernatant was ready for LC-MS/MS analysis to measure the formation of acid metabolite.
Acquity Ultra Performance LC system from Waters was used for sample analysis. The chromatography was performed on a reverse phase Kinetex 2.6 μm C18 column, 2.1×30 mm, 100 Å. The mobile phase A comprised of 0.1% formic acid in water and mobile phase B comprised of 0.1% formic acid in acetonitrile with a 2-min run time at the flow rate of 0.8 mL/min for the acid metabolite from positive control or a 1.5 min run time at the flow rate of 0.9 mL/min for the acid metabolite of test compounds. The mass spectrometer (API-5500 and API Q Trap 4000 Applied Biosystems/MDS SCIEX Instruments, Framingham, MA, USA) was operated under ESI positive or negative ion MRM mode.
The formation of acid metabolite was monitored and quantified using one calibration point of 1 μM. The observed rate constant (ke) for the acid metabolite formation was calculated by plotting the metabolite concentration versus time of incubation with the slope being ke and is shown in Table 2.

Structure (SMILES)	ke (observed rate constant for the acid metabolite formation)
O=C(C[C@H]1CCc2c1[nH]c1ccc(OCc3ccc(C4CCCC4)c(C(F)(F)F)c3)cc21)Nc1cccnn1 [Compound 43]	B (ke is less than 1.0 and more than or equal to 0.1)
Cc1noc(-c2ccc(CSCCC(=O)Nc3ccncc3)cc2)c1NC(=O)OC(C)c1ccccc1Cl (stereo not shown) [Compound 44]	B (ke is less than 1.0 and more than or equal to 0.1)
Cc1noc(-c2ccc(CSCCC(=O)N[C@H]3C[C@H]3F)cc2)c1NC(=O)OC(C)c1ccccc1Cl (stereo partly shown) [Compound 45]	C (ke is less than 0.1 and more than 0)
Cc1noc(-c2ccc(CSCCC(=O)NCCCF)cc2)c1NC(=O)O[C@H](C)c1ccccc1Cl [Compound 46]	C (ke is less than 0.1 and more than 0)
O=C(C[C@H]1CCc2c1[nH]c1ccc(OCc3ccc(C4CCCC4)c(C(F)(F)F)c3)cc21)Nc1ccncc1 [Compound 47]	D (ke is 0)
CCCCC[C@H](O)CC[C@@H]1[C@H]2Cc3cccc(OCC(=O)N[C@H]4C[C@@H]4F)c3C[C@H]2C[C@H]1O [Compound 48]	B (ke is less than 1.0 and more than or equal to 0.1)
CCCCC[C@H](O)CC[C@@H]1[C@H]2Cc3cccc(OCC(=O)N[C@H]4C[C@H]4F)c3C[C@H]2C[C@H]1O [Compound 49]	C (ke is less than 0.1 and more than 0)
O=C(Nc1ccnnc1)c1ccc2nc(-c3cc(Cl)cc(Cl)c3)oc2c1 [Compound 50]	A (ke is more than or equal to 1.0)
COc1ccc(NC(=O)c2ccc3nc(-c4cc(Cl)cc(Cl)c4)oc3c2)cn1 [Compound 51]	A (ke is more than or equal to 1.0)
O=C(Nc1cccnc1)c1ccc2nc(-c3cc(Cl)cc(Cl)c3)oc2c1 [Compound 52]	A (ke is more than or equal to 1.0)
CCCCC[C@H](O)CC[C@@H]1[C@H]2Cc3cccc(OCC(=O)Nc4cccnn4)c3C[C@H]2C[C@H]1O [Compound 53]	A (ke is more than or equal to 1.0)
CCCCC[C@H](O)CC[C@@H]1[C@H]2Cc3cccc(OCC(=O)Nc4ccncc4)c3C[C@H]2C[C@H]1O [Compound 55]	A (ke is more than or equal to 1.0)
O=C(Nc1ccncc1)c1ccc2nc(-c3cc(Cl)cc(Cl)c3)oc2c1 [Compound 57]	D (ke is 0)
